Assay results taken from US8895623B2 (priority 2011, dated 2014).
Like-named read-outs stand apart in the source and are kept apart here.

Tests used:
[1] = in humans, known value; cited from earlier work
[2] = pharmacokinetics after intravenous administration in humans; format: in vivo; conditions: for initial plasma concentrations: after intravenous administrations of equal doses, comparison of enantiomers; for elimination halftime: in humans, intravenous administration
Experimental: On examination of the pharmacokinetics of the two compounds after intravenous administration, it became clear that the rate of elimination of 3-[(1S,2S)-3-(dimethylamino)-1-ethyl-2-methylpropyl]phenol was much higher than that of 3-[(1R,2R)-3-(dimethylamino)-1-ethyl-2-methylpropyl]phenol, and higher even than could be explained on clearance of the total hepatic blood flow. […] In fact, the elimination halftime of 3-[(1S,2S)-3-(dimethylamino)-1-ethyl-2-methylpropyl]phenol was ca. 0.75 h.

[3] = loss of compound on incubation in heparinised whole human blood; format: in vitro ADME; conditions: for loss of added compound: whole human blood
Source text: The remaining possibility was that the high clearance was due to a stereo-selective biochemical process occurring in blood itself. If true, then it would be expected that 3-[(1S,2S)-3-(dimethylamino)-1-ethyl-2-methylpropyl]phenol, but not 3-[(1R,2R)-3-(dimethylamino)-1-ethyl-2-methylpropyl]phenol, would be metabolised in a time-, concentration-, and temperature-dependent manner by whole human blood.
To test the hypothesis, blood was withdrawn from healthy volunteers, heparinised (final heparin concentration, 15 U/ml), and spiked with 1 μM 3-[(1S,2S)-3-(dimethylamino)-1-ethyl-2-methylpropyl]phenol or 3-[(1R,2R)-3-(dimethylamino)-1-ethyl-2-methylpropyl]phenol. It was mixed on a rotary mixer at 37° C. in closed test-tubes. The rate of loss of the added compounds was determined by taking aliquots at regular intervals, centrifuging at 5000 g for 5 minutes, and analysing the supernatant.
Supernatants were alkalinized by addition of aqueous 25% ammonia (50 μl/ml plasma), spiked with an internal standard, and extracted twice with tertiary butyl methyl ether (2 ml per ml plasma). The ether layers were combined and dried in a stream of nitrogen before being reconstituted in 150 μl chromatography buffer (see below).
All assay supernatants were analysed by reversed-phase HPLC on a Inertsil 5 ODS 2 column (250×4.6 mm). The HPLC system consisted of equipment from Dionex or Gynkotek. The auto-sampler was a GINA 50T unit (Gynkotek); the pump system was type P580A LPG (Gynkotek); the column was thermostatted at 30° C. using a SHT 585 unit (Gynkotek). Effluents were generally monitored for fluorescence emission at 300 nm after excitation at 215 nm using a RF 2000 detector (Dionex); the wavelengths for excitation and emission were chosen to be optimal for 3-[(1S,2S)-3-(dimethylamino)-1-ethyl-2-methylpropyl]phenol or 3-[(1R,2R)-3-(dimethylamino)-1-ethyl-2-methylpropyl]-phenol. Chromatograms were evaluated using Chromeleon software version 6.11 (Dionex).
Generally, the samples were eluted using an isocratic solvent mixture. Sodium pentane-sulphonate was dissolved at 1.92 g/l (10 mM)=PSS; perchloric acid (PA) was 60% w/v. A mixture containing 900 ml PSS, 210 ml methanol, 80 ml tetrahydrofuran, and 0.1 ml PA was made, allowed to stand overnight, and degassed prior to passage over the column. The effluent was passed first through the UV detector, and then into the fluorescence detector.

[4] = rate of microsomal oxidation in vitro; format: in vitro ADME; conditions: hepatic microsomes
Source text: The probability of different routes of metabolic clearance in vivo can be investigated by estimating the rates of the underlying oxidation or conjugation reactions in vitro using sub-cellular fractions such as hepatic microsomes. Because the rate of microsomal oxidation of 3-[(1S,2S)-3-(dimethylamino)-1-ethyl-2-methylpropyl]phenol could be shown to be very low, it was considered that oxidative metabolism was unlikely to be a significant metabolic clearance route for this molecule.

thrombocytes [5] = test: conjugation in thrombocytes in presence of biogenic amine transport inhibitors
male Sprague Dawley rats = test: low intensity tail-flick test after intrathecal administration; format: in vivo, rat; conditions: intrathecal (i.t.) 3.15 μg/animal, 20 min p. appl., mean±s.e.m., n=10
Experimental: Antinociceptive effects of 3-[(1S,2S)-3-(dimethylamino)-1-ethyl-2-methylpropyl]-phenol were evaluated in the low intensity tail-flick test after local drug application into the spinal cord of rats.
160 male Sprague Dawley rats (200 to 260 g body weight) from a commercial breeder (Janvier, Le Genest St Isle, France) were housed under standardized conditions: light/dark rhythm (06.00-18.00 h light, 18.00-06.00 h dark); room temperature 20-24° C.; relative air humidity 35-70%; 15 air changes per hour, air movement <0.2 m/sec. The animals were given water and feedstuff designed for rats/mice/hamsters from Nohrlin (Bad Salzuflen, FRG) ad libitum. They were kept in groups of six in Makrolon cages type 4. There were at least 5 days between the day of delivery and the day of testing.
The experiments were performed using a Tail-flick device from Rhema-Labortechnik (Hofheim/Ts., FRG). Before and after drug application, a radiant heat beam was focused onto the dorsal surface of the rat's tail about 2 to 4 cm apart from the root. […] The latency from switching on the lamp to tail withdrawal was measured. […]
The individual latencies were calculated as the percentage of the Maximum Possible Effect (% MPE) according to the following formula: % MPE=(latency−VTM)/(30sec−VTM)*100% VTM: mean pre-test value, 30 sec: cut off value.
Data were expressed as mean±s.e.m. of the respective animal group.

stability to plasma = format: in vitro ADME
Source text: Blood consists of plasma, plasma enzymes, and various blood cell types (erythrocytes, leukocytes, thrombocytes etc). 3-[(1S,2S)-3-(dimethylamino)-1-ethyl-2-methylpropyl]phenol was expected, and proven, to be stable to plasma. Of the blood cell types, thrombocytes (platelets) were expected to have the highest relevant enzymatic activity in SULT1A3, a sulphotransferase.

[6] = oral bioavailability in humans; format: in vivo
Source text: The principal route of metabolic clearance of 3-[(1R,2R)-3-(dimethylamino)-1-ethyl-2-methylpropyl]phenol in most species, including humans, is glucuronidation, and this route was therefore considered to be very likely to be dominant for 3-[(1S,2S)-3-(dimethylamino)-1-ethyl-2-methylpropyl]phenol as well.

thrombocytes [7] = test: incubation in thrombocyte-enriched plasma (sulphation by thrombocytes); format: in vitro ADME, human
Experimental: Thrombocyte (platelet-)enriched plasma can be prepared by centrifuging blood at 400 g for 10 minutes as this precipitates larger cells (erythrocytes, leukocytes).

CC[C@@H](c1cccc(O)c1)[C@@H](C)CN(C)C [(-)-(1R,2R)-3-(3-dimethylamino-1-ethyl-2-methyl-propyl)-phenol, reference compound]
oral bioavailability [1]: ca. 33% | initial plasma concentrations [2]: essentially identical | elimination halftime [2]: ca. 3.2 h | loss of added compound ([3]; 1 μM, 37° C., over one hour): No loss | rate of microsomal oxidation [4]: similarly low

CC[C@H](c1cccc(OS(=O)(=O)O)c1)[C@H](C)CN(C)C [3-[(1S,2S)-3-(dimethylamino)-1-ethyl-2-methylpropyl]phenol-sulphate]
accumulation in pelleted thrombocytes (thrombocytes [5]; under any condition): no accumulation

CC[C@H](c1cccc(O)c1)[C@H](C)CN(C)C [3-[(1S,2S)-3-(dimethylamino)-1-ethyl-2-methylpropyl]phenol]
maximum antinociceptive effect (male Sprague Dawley rats): 59.71±2.94 % MPE | stability to plasma (stability to plasma): stable | initial plasma concentrations [2]: essentially identical | clearance relative to hepatic blood flow ([2]; humans, explains short elimination halftime): 5 fold the hepatic blood flow | elimination halftime [2]: ca. 0.75 h | concentration above which clearance process is saturable ([3]; whole blood, net losses sub-linear): above 2 μM | loss of added compound ([3]; 1 μM, 37° C., over one hour): 35% | loss of added compound ([3]; 6° C.): no loss | loss of added compound ([3]; room temperature (24° C.)): 7% | rate of microsomal oxidation [4]: very low | oral bioavailability [6]: effectively zero | oral bioavailability or intravenous bioavailability [6]: no relevant oral bioavailability or intravenous bioavailability | rate of conjugation in presence of transport inhibitors (thrombocytes [5]; cocaine 10 μM, nomifensin 10 μM, amphetamine 100 μM, fluoxetine 10 μM, desipramine 100 μM): influenced neither | Km (thrombocytes [7]; estimated from concentration dependency of the reaction rate, read-out: Km of the process): 3.5 µM | loss on incubation in thrombocyte-enriched plasma (thrombocytes [7]; thrombocyte-enriched plasma from a given volume of blood, compared with whole blood): equivalent to that observed on incubation in the original volume of whole blood

CC[C@H](c1ccc[14c](O)c1)[C@H](C)CN(C)C [14C-3-[(1S,2S)-3-(dimethylamino)-1-ethyl-2-methylpropyl]phenol]
reaction products after incubation (thrombocytes [7]; whole blood or thrombocyte-enriched plasma, eluted identically to synthetic sulphate on HPLC): only a single reaction product
